According to PubChem BioAssay (NCI):
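Values below derive from 48-hour exposures of cells grown in 96-well plates, with endpoints linearly interpolated between the two concentrations bracketing the appropriate inhibition level. GI50 marks 50% less growth. TGI is the concentration that stops growth completely.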

Assays:
Assay in all cases: DTP human tumour cell line panel, 48 h
[1] = tested on: 786-0 renal
[2] = tested on: A498 renal
[3] = tested on: A549 NSCLC
[4] = tested on: ACHN renal
[5] = tested on: BT-549 breast
[6] = tested on: CAKI-1 renal
[7] = tested on: CCRF-CEM leukemia
[8] = tested on: COLO 205 colon
[9] = tested on: DU-145 prostate
[10] = tested on: EKVX NSCLC
[11] = tested on: HCC-2998 colon
[12] = tested on: HCT-116 colon
[13] = tested on: HCT-15 colon
[14] = tested on: HL-60(TB) leukemia
[15] = tested on: HOP-62 NSCLC
[16] = tested on: HOP-92 NSCLC
[17] = tested on: HS 578T breast
[18] = tested on: HT29 colon
[19] = tested on: IGROV1 ovarian
[20] = tested on: K-562 leukemia
[21] = tested on: KM12 colon
[22] = tested on: LOX IMVI melanoma
[23] = tested on: M14 melanoma
[24] = tested on: MALME-3M melanoma
[25] = tested on: MCF7 breast
[26] = tested on: MDA-MB-231 breast
[27] = tested on: MDA-MB-435
[28] = tested on: MOLT-4 leukemia
[29] = tested on: NCI-H226 lung
[30] = tested on: NCI-H23 lung
[31] = tested on: NCI-H460 lung
[32] = tested on: NCI-H522 lung
[33] = tested on: NCI/ADR-RES ovarian
[34] = tested on: OVCAR-3 ovarian
[35] = tested on: OVCAR-4 ovarian
[36] = tested on: OVCAR-5 ovarian
[37] = tested on: OVCAR-8 ovarian
[38] = tested on: PC-3 prostate
[39] = tested on: RPMI-8226 leukemia
[40] = tested on: SF-268 CNS
[41] = tested on: SF-295 CNS
[42] = tested on: SF-539 CNS
[43] = tested on: SK-MEL-2 melanoma
[44] = tested on: SK-MEL-28 melanoma
[45] = tested on: SK-MEL-5 melanoma
[46] = tested on: SK-OV-3 ovarian
[47] = tested on: SN12C renal
[48] = tested on: SNB-19 CNS
[49] = tested on: SNB-75 CNS
[50] = tested on: SR leukemia
[51] = tested on: SW-620 colon
[52] = tested on: T-47D breast
[53] = tested on: TK-10 renal
[54] = tested on: U251 CNS
[55] = tested on: UACC-257 melanoma
[56] = tested on: UACC-62 melanoma
[57] = tested on: UO-31 renal

How did the GI50 [1] turn out when `CN1CCN(c2ccc(Nc3nc(NCCCNS(=O)(=O)c4cccc(F)c4)c4sccc4n3)cc2)CC1` was run?
The GI50 was 2.47 µM.

And the TGI [1]?
The TGI was 6.25 µM.

What about the GI50 [2] of the same compound?
The GI50 was 10.9 µM.

And the TGI [2]?
Its TGI is 23 µM.

What about the GI50 [3] of the same compound?
Its GI50 is 10 µM.

What about the TGI [3] of the same compound?
The TGI was 23.7 µM.

And the GI50 [4]?
The GI50 was 4.49 µM.

What about the TGI [4] of the same compound?
Its TGI is 16.2 µM.

What about the GI50 [5] of the same compound?
Its GI50 is 8.19 µM.

What about the TGI [5] of the same compound?
The TGI was 23.9 µM.

What about the GI50 [6] of the same compound?
Its GI50 is 10.8 µM.

What about the TGI [6] of the same compound?
The TGI was 22.6 µM.

What about the GI50 [7] of the same compound?
Its GI50 is 3.99 µM.

And the TGI [7]?
Its TGI is greater than 100 µM.

What about the GI50 [8] of the same compound?
The GI50 was 3.61 µM.

And the TGI [8]?
Its TGI is 16.1 µM.

And the GI50 [9]?
Its GI50 is 10.5 µM.

And the TGI [9]?
Its TGI is 23 µM.

What about the GI50 [10] of the same compound?
Its GI50 is 9.48 µM.

And the TGI [10]?
The TGI was 21.3 µM.

What about the GI50 [11] of the same compound?
Its GI50 is 4.35 µM.

What about the TGI [11] of the same compound?
Its TGI is 15.5 µM.

What about the GI50 [12] of the same compound?
The GI50 was 3.73 µM.

What about the TGI [12] of the same compound?
Its TGI is 16.4 µM.

What about the GI50 [13] of the same compound?
Its GI50 is 2.18 µM.

And the TGI [13]?
The TGI was 6.88 µM.

And the GI50 [14]?
The GI50 was 1.78 µM.

And the TGI [14]?
The TGI was 3.74 µM.

What about the GI50 [15] of the same compound?
Its GI50 is 14.8 µM.

And the TGI [15]?
The TGI was 29 µM.

What about the GI50 [16] of the same compound?
The GI50 was 3.37 µM.

And the TGI [16]?
Its TGI is 17.1 µM.

And the GI50 [17]?
The GI50 was 3.72 µM.

What about the TGI [17] of the same compound?
The TGI was 34.4 µM.

And the GI50 [18]?
Its GI50 is 2.18 µM.

And the TGI [18]?
Its TGI is 5.14 µM.

What about the GI50 [19] of the same compound?
The GI50 was 7.33 µM.

And the TGI [19]?
The TGI was 20.9 µM.

What about the GI50 [20] of the same compound?
Its GI50 is 1.43 µM.

And the TGI [20]?
Its TGI is 9.8 µM.

What about the GI50 [21] of the same compound?
Its GI50 is 10.8 µM.

And the TGI [21]?
Its TGI is 40.5 µM.

What about the GI50 [22] of the same compound?
The GI50 was 1.74 µM.

What about the TGI [22] of the same compound?
The TGI was 3.58 µM.

What about the GI50 [23] of the same compound?
Its GI50 is 1.78 µM.

And the TGI [23]?
The TGI was 3.69 µM.

What about the GI50 [24] of the same compound?
Its GI50 is 1.8 µM.

And the TGI [24]?
The TGI was 3.25 µM.

And the GI50 [25]?
The GI50 was 3.52 µM.

What about the TGI [25] of the same compound?
Its TGI is 14.3 µM.

And the GI50 [26]?
Its GI50 is 3.54 µM.

What about the TGI [26] of the same compound?
Its TGI is 12.7 µM.

What about the GI50 [27] of the same compound?
Its GI50 is 3.01 µM.

What about the TGI [27] of the same compound?
Its TGI is 11.3 µM.

What about the GI50 [28] of the same compound?
Its GI50 is 1.34 µM.

And the TGI [28]?
The TGI was 12.8 µM.

What about the GI50 [29] of the same compound?
The GI50 was 6.63 µM.

What about the TGI [29] of the same compound?
Its TGI is 20.1 µM.

What about the GI50 [30] of the same compound?
The GI50 was 11.7 µM.

What about the TGI [30] of the same compound?
The TGI was 25.7 µM.

And the GI50 [31]?
The GI50 was 3.81 µM.

What about the TGI [31] of the same compound?
The TGI was 14.6 µM.

What about the GI50 [32] of the same compound?
Its GI50 is 3.2 µM.

And the TGI [32]?
The TGI was 14.1 µM.

And the GI50 [33]?
Its GI50 is 13.9 µM.

And the TGI [33]?
The TGI was 38.5 µM.

And the GI50 [34]?
Its GI50 is 3.59 µM.

What about the TGI [34] of the same compound?
Its TGI is 15.3 µM.

And the GI50 [35]?
Its GI50 is 3.45 µM.

What about the TGI [35] of the same compound?
The TGI was 14.7 µM.

And the GI50 [36]?
The GI50 was 10.2 µM.

And the TGI [36]?
The TGI was 22.3 µM.

And the GI50 [37]?
The GI50 was 5.67 µM.

And the TGI [37]?
The TGI was 23.2 µM.

And the GI50 [38]?
Its GI50 is 6.87 µM.

What about the TGI [38] of the same compound?
Its TGI is 25.1 µM.

What about the GI50 [39] of the same compound?
Its GI50 is 2.85 µM.

What about the TGI [39] of the same compound?
The TGI was 13.9 µM.

And the GI50 [40]?
The GI50 was 6.41 µM.

And the TGI [40]?
The TGI was 24.9 µM.

What about the GI50 [41] of the same compound?
Its GI50 is 3.74 µM.

What about the TGI [41] of the same compound?
The TGI was 13.8 µM.

And the GI50 [42]?
Its GI50 is 1.67 µM.

And the TGI [42]?
Its TGI is 3.18 µM.

What about the GI50 [43] of the same compound?
Its GI50 is 12.8 µM.

And the TGI [43]?
The TGI was 25.9 µM.

What about the GI50 [44] of the same compound?
The GI50 was 1.61 µM.

What about the TGI [44] of the same compound?
Its TGI is 3.08 µM.

And the GI50 [45]?
The GI50 was 3.49 µM.

What about the TGI [45] of the same compound?
The TGI was 12 µM.

And the GI50 [46]?
The GI50 was 17.3 µM.

And the TGI [46]?
Its TGI is 32.3 µM.

What about the GI50 [47] of the same compound?
The GI50 was 11.5 µM.

And the TGI [47]?
Its TGI is 23.8 µM.

What about the GI50 [48] of the same compound?
The GI50 was 7.7 µM.

And the TGI [48]?
The TGI was 20.2 µM.

What about the GI50 [49] of the same compound?
Its GI50 is 11.5 µM.

What about the TGI [49] of the same compound?
The TGI was 23.9 µM.

And the GI50 [50]?
Its GI50 is 1.79 µM.

What about the TGI [50] of the same compound?
Its TGI is 5.5 µM.

What about the GI50 [51] of the same compound?
The GI50 was 4.12 µM.

What about the TGI [51] of the same compound?
The TGI was 17.2 µM.

What about the GI50 [52] of the same compound?
The GI50 was 10.9 µM.

What about the TGI [52] of the same compound?
The TGI was 31.1 µM.

What about the GI50 [53] of the same compound?
Its GI50 is 14.5 µM.

What about the TGI [53] of the same compound?
Its TGI is 28.2 µM.

And the GI50 [54]?
Its GI50 is 3.31 µM.

What about the TGI [54] of the same compound?
Its TGI is 13.5 µM.

What about the GI50 [55] of the same compound?
The GI50 was 1.86 µM.

And the TGI [55]?
Its TGI is 3.81 µM.

What about the GI50 [56] of the same compound?
Its GI50 is 2.46 µM.

And the TGI [56]?
The TGI was 7.07 µM.

And the GI50 [57]?
Its GI50 is 10.1 µM.

And the TGI [57]?
The TGI was 21.7 µM.
